This passage reports IC50 results from ChEMBL document CHEMBL1147124, “Antigiardial activity of triterpenoids from root bark of Hippocratea excelsa” (J Nat Prod, 2007).

In the experiment the test system is Giardia intestinalis. Kind of experiment: Antiprotozoal activity against Giardia intestinalis IMSS:0696:1 trophozoites after 48 hrs. The experiment is classed as functional, organism-based. The note with it: Giardia duodenalis.

The molecule `C[C@H]1C(=O)CCC2[C@]3(C)CC[C@@]4(C)C5CC(C)(C)[C@H](O)C[C@]5(C)CC[C@]4(C)C3CC[C@@]21C` (stereo partly specified) displayed an IC50 of 19.8 µM.

In the case of `CC1(C)C[C@H]2C3=CC[C@@H]4[C@@]5(C)CCC(=O)C(C)(C)[C@@H]5CC[C@@]4(C)[C@]3(C)CC[C@@]2(C)C[C@@H]1O`, the IC50 came out at 27.4 µM.

The molecule `COC(=O)/C=C1\C(C(C)=O)=CC=C2[C@]3(C)CC[C@@]4(C)CC[C@@](C)(C(=O)OC)CC4[C@@]3(C)CC[C@]21C` (stereo partly specified) [DZUNUNCANONE] gave an IC50 of 22.4 µM.

As to `COC(=O)[C@]1(C)CC[C@]2(C)CC[C@]3(C)C4=CC=C5C(=CC(=O)C(O)=C5C)[C@]4(C)CC[C@@]3(C)[C@@H]2C1` [PRISTIMERIN], the half-inhibitory concentration (IC50) is 0.11 µM.

For the molecule `CC1=C(O)C(=O)C=C2C1=CC=C1[C@@]2(C)CC[C@@]2(C)[C@@H]3C[C@@H](C)C(=O)C[C@]3(C)CC[C@]12C` [TINGENONE], the IC50 is 0.74 µM.

Molecule `COC(=O)[C@]1(C)CC[C@]2(C)CC[C@]3(C)C4=CC=C5C(=CC(=O)[C@]6(O)Oc7cc8c(cc7O[C@]56C)C(=O)C=C5[C@@]8(C)CC[C@@]6(C)[C@@H]7C[C@](C)(C(=O)OC)CC[C@]7(C)CC[C@]56C)[C@]4(C)CC[C@@]3(C)[C@@H]2C1` [XUXARINE EBETA] had a half-maximal inhibitory concentration (IC50) of 11.3 µM.

In general, IC50 refers to the concentration that gives 50% inhibition. Read a high IC50 as a need for much substance.
